Assay results taken from patent US20230116760A1, “STRUCTURALLY-STABILIZED ONCOLYTIC PEPTIDES AND USES THEREOF” (Dana-Farber Cancer Institute, Inc., priority 2019, published 2023).
Bridge positions count the residues as written; N and C are the ends. Square brackets hold non-standard residues; d marks the D form. Ends that are not written are not given here. Peptide text beside a SMILES is read from it. S5 = C=CCCC[C@](C)(N)C(=O)O; Nle = CCCC[C@H](N)C(=O)O

How the values were obtained:
U937 cells = test: LDH release assay of U937 cells; format: cell-based; settings: 10 and 25 μg/mL, 90 minutes, FIG. 6, FIG. 7
Description: (§1) LDH release assay: To assess the release of lactate dehydrogenase (LDH) upon treatment with a structurally-stabilized peptide described herein, an LDH release assay can be used. Cultured cells, including, e.g., cancer cells and HUVEC cells, are plated in 96-well format (2×10^4 cells per well; including overnight incubation for adherent cells) and then treated with serial dilutions of structurally-stabilized peptides in a final volume in a final volume of 100 μL and incubated at 37° C. for the indicated time period (e.g., 90 minutes). The plates are spun down at 1500 rpm for 5 minutes at 4° C., and 80 μL of cell culture media is transferred to a clear plate (Corning), incubated with 80 μL of LDH reagent (Roche) for 15 minutes while shaking, and absorbance is measured at 490 nm on a microplate reader (SpectraMax M5 Microplate Reader, Molecular Devices). LDH release assays, as tailored to specific cancer cell types (OCI-AML3 cells and primary human pediatric B-ALL cells), are exemplified below.
(§2) LDH release assay: Cultured cells, including cancer cells and HUVEC cells, were plated in 96-well format (2×10^4 cells per well; including overnight incubation for adherent cells) and then treated with serial dilutions of Mag(i+4) peptides in a final volume in a final volume of […] and incubated at 37° C. for the indicated time period. The plates were spun down at 1500 rpm for 5 min at 4° C., and 80 μL of cell culture media was transferred to a clear plate (Corning), incubated with 80 μL of LDH reagent (Roche) for 15 min while shaking, and absorbance measured at 490 nm on a microplate reader (SpectraMax M5 Microplate Reader, Molecular Devices). LDH release assays, as tailored to specific cancer cell types, are exemplified below.

OCI-AML3 cells = test: LDH release assay of OCI-AML3 cells; format: cell-based, human; settings: 90 minutes; for cancer cell lysis by LDH release, compared with parent Mag(i+4)15: 10 and 25 μg/mL, FIG. 6, FIG. 7; for susceptibility of OCI-AML3 cells to iStOPs (LDH release): FIG. 19
Description: as §1
LDH release assay of OCI-AML3 cells: OCI-AML3 cells are seeded in 96-well plates (2×10^4 cells per well) in RPMI medium containing 5% FBS and treated with structurally-stabilized peptides for 90 minutes. LDH release is quantified by incubating centrifuged (e.g., at 1500 rpm) cell culture medium 1:1 with LDH reagent (Roche), followed by absorbance measurement 490 nm on a microplate reader (Spectramax M5). Percent LDH release was normalized to 1% Triton.
as §2
LDH release assay of OCI-AML3 cells: OCI-AML3 cells were seeded in 96-well plates (2×10^4 cells per well) in RPMI medium containing 5% FBS and treated with peptides having the indicated amino acid sequences for 90 minutes. LDH release was quantified by incubating centrifuged cell culture medium 1:1 with LDH reagent (Roche), followed by absorbance measurement 490 nm on a microplate reader (Spectramax M5). Percent LDH release was normalized to 1% Triton. Data was pooled from 2 technical replicates.

red blood cells (RBCs) = format: cell-based, human
Description: RBC hemolysis assay: To assess the hemolytic activity of a structurally-stabilized peptide described herein, a red blood cell (RBV) hemolysis assay can be used. Human blood samples are centrifuged to isolate RBCs, which are then washed and suspended in phosphate-buffered saline to yield a 1% (v/v) suspension. The suspension is added to serial dilutions of peptide stocks in water in clear round-bottom polypropylene 96-well plates and the plates incubated for 1 hour at 37° C. The plates are then centrifuged and the supernatant isolated to determine the amount of hemoglobin released using a spectrophotometer (570 nm). Percent hemolysis is calculated as: ([Treated Absorbance−Untreated Control Absorbance]×100)/(1% Triton X-100 Treated Absorbance−Untreated Control Absorbance).
Stapled oncolytic peptide synthesis: Fmoc-based solid-phase peptide synthesis was used to synthesize stapled antimicrobial peptides in accordance with previously reported methods for generating all-hydrocarbon stapled peptides. To achieve the various staple lengths, α-methyl, α-alkenyl amino acids were installed at i, i+4 positions using two S-pentenyl alanine residues (S5). For the stapling reaction, Grubbs 1st generation ruthenium catalyst dissolved in dichloroethane was added to the resin-bound peptides. To ensure maximal conversion, three to five rounds of stapling were performed. The peptides were then cleaved off of the resin using trifluoroacetic acid, precipitated using a hexane:ether (1:1) mixture, air dried, and purified by LC-MS. All peptides were quantified by amino acid analysis. RBC hemolysis assay: Human blood samples were centrifuged to isolate red blood cells (RBCs), which were then washed and suspended in phosphate-buffered saline to yield a 1% (v/v) suspension. The suspension was added to serial dilutions of peptide stocks in water in clear round-bottom polypropylene 96-well plates and the plates incubated for 1 hour at 37° C. The plates were then centrifuged and the supernatant isolated to determine the amount of hemoglobin released using a spectrophotometer (570 nm). Percent hemolysis was calculated as: ([Treated Absorbance−Untreated Control Absorbance]×100)/(1% Triton X-100 Treated Absorbance−Untreated Control Absorbance).

Compound	cancer cell lysis by LDH release, compared with parent Mag(i+4)15 (U937 cells)	cancer cell lysis by LDH release, compared with parent Mag(i+4)15 (OCI-AML3 cells)	susceptibility of OCI-AML3 cells to iStOPs (LDH release) (OCI-AML3 cells)	RBC lysis (red blood cells (RBCs))
GIGKFLHSAKKFGKAX1VGEX2KNS (GIGKFLHSAKKFGKA[S5]VGE[S5]KNS; staple 16-20) [Mag(i+4)15 (M21K)]	retain substantial, if not all, oncolytic activity	retain substantial, if not all, oncolytic activity	–	–
iStOP 11: integrated StOP of Magainin II combining staples and point mutation(s); sequence only in FIG. 17B ([S5]IGK[S5]LHSKKKFGKA[S5]VGE[S5][Nle]NS; staple 1-5, 16-20)	–	–	especially potent and selective activity	–
GIGKFLHSAKKFGKAX1VEEX2BNS (GIGKFLHSAKKFGKA[S5]VEE[S5][Nle]NS; staple 16-20) [Mag(i+4)15 (G18E)]	retained potent membrane lysis	retained potent membrane lysis	especially potent and selective activity	–
GIGKFLKSAKKFGKAX1VGEX2BNS (GIGKFLKSAKKFGKA[S5]VGE[S5][Nle]NS; staple 16-20) [Mag(i+4)15 (H7K)]	retain substantial, if not all, oncolytic activity	retain substantial, if not all, oncolytic activity	–	–
GIGKFLHSAKKFGKAX1VGEX2BKS (GIGKFLHSAKKFGKA[S5]VGE[S5][Nle]KS; staple 16-20) [Mag(i+4)15 (N22K)]	retain substantial, if not all, oncolytic activity	retain substantial, if not all, oncolytic activity	–	–
GIGKFLESAKKFGKAX1VGEX2BNS (GIGKFLESAKKFGKA[S5]VGE[S5][Nle]NS; staple 16-20) [Mag(i+4)15 (H7E)]	retained potent membrane lysis	retained potent membrane lysis	especially potent and selective activity	–
CCCC[C@H](NC(=O)[C@@H](NC(=O)[C@H](CCC(=O)O)NC(=O)CNC(=O)[C@@H](NC(=O)[C@H](Cc1ccccc1)NC(=O)[C@H](C)NC(=O)[C@H](CCCCN)NC(=O)CNC(=O)[C@H](Cc1ccccc1)NC(=O)[C@H](CCCCN)NC(=O)[C@H](CCCCN)NC(=O)[C@H](C)NC(=O)[C@H](CO)NC(=O)[C@H](Cc1c[nH]cn1)NC(=O)[C@H](CC(C)C)NC(=O)[C@]1(C)CCCC=CCCC[C@](C)(N)C(=O)N[C@@H]([C@@H](C)CC)C(=O)NCC(=O)N[C@@H](CCCCN)C(=O)N1)C(C)C)[C@@H](C)CC)C(=O)N[C@@H](CC(N)=O)C(=O)N[C@@H](CO)C(N)=O [Mag(i+4)0, X1IGKX2LHSAKKFGKAFVGEIBNS] (H-[S5]IGK[S5]LHSAKKFGKAFVGEI[Nle]NS-NH2; staple 1-5)	–	–	–	little to no effect on RBCs
GIGKFLHEAKKFGKAX1VGEX2BNS (GIGKFLHEAKKFGKA[S5]VGE[S5][Nle]NS; staple 16-20) [Mag(i+4)15 (S8E)]	retained potent membrane lysis	retained potent membrane lysis	–	–
GIGKFLHKAKKFGKAX1VGEX2BNS (GIGKFLHKAKKFGKA[S5]VGE[S5][Nle]NS; staple 16-20) [Mag(i+4)15 (S8K)]	retain substantial, if not all, oncolytic activity	retain substantial, if not all, oncolytic activity	–	–
GIGKFLHSAKKFGKEX1VGEX2BNS (GIGKFLHSAKKFGKE[S5]VGE[S5][Nle]NS; staple 16-20) [Mag(i+4)15 (A15E)]	retained substantial or all cancer cell killing activity	retained substantial or all cancer cell killing activity	especially potent and selective activity	–
GIGKFLHSAKKFGKAX1VKEX2BNS (GIGKFLHSAKKFGKA[S5]VKE[S5][Nle]NS; staple 16-20) [Mag(i+4)15 (G18K)]	retain substantial, if not all, oncolytic activity	retain substantial, if not all, oncolytic activity	–	–
GIEKFLHSAKKFGKAX1VGEX2BNS (GIEKFLHSAKKFGKA[S5]VGE[S5][Nle]NS; staple 16-20) [Mag(i+4)15 (G3E)]	retained potent membrane lysis	retained potent membrane lysis	–	–
GIGKFLHSAKKFGKAX1VGEX2BES (GIGKFLHSAKKFGKA[S5]VGE[S5][Nle]ES; staple 16-20) [Mag(i+4)15 (N22E)]	retained potent membrane lysis	retained potent membrane lysis	especially potent and selective activity	–
GIGKFLHSAKKFGKAX1VGKX2BNS (GIGKFLHSAKKFGKA[S5]VGK[S5][Nle]NS; staple 16-20) [Mag(i+4)15 (E19K)]	retain substantial, if not all, oncolytic activity	retain substantial, if not all, oncolytic activity	–	–
GIGKFLHSAKKFGKKX1VGEX2BNS (GIGKFLHSAKKFGKK[S5]VGE[S5][Nle]NS; staple 16-20) [Mag(i+4)15 (A15K)]	retain substantial, if not all, oncolytic activity	retain substantial, if not all, oncolytic activity	–	–
GIGKFLHSAKKFGKAX1VGEX2BNE (GIGKFLHSAKKFGKA[S5]VGE[S5][Nle]NE; staple 16-20) [Mag(i+4)15 (S23E)]	retained substantial or all cancer cell killing activity	retained substantial or all cancer cell killing activity	especially potent and selective activity	–
GIKKFLHSAKKFGKAX1VGEX2BNS (GIKKFLHSAKKFGKA[S5]VGE[S5][Nle]NS; staple 16-20) [Mag(i+4)15 (G3K)]	retain substantial, if not all, oncolytic activity	retain substantial, if not all, oncolytic activity	–	–
